In the NIST ThermoML archive (doi:10.1016/j.tca.2008.12.007):
Numbers after ± are expanded uncertainties.

Assay: xn = mol fraction of the nth substance listed
Conditions: 101 kPa, Liquid, Vibrating tube method

With `C1CCCNCC1` [azacycloheptane] + O the mass density (313.15 K, x2 = 0.3) was 882.83 ± 0.21 kg/m3, the mass density (313.15 K, x2 = 0.3499) was 886.76 ± 0.2 kg/m3 and the mass density (313.15 K, x2 = 0.4) was 890.72 ± 0.19 kg/m3. The mass density (313.15 K, x2 = 0.4529) was 895.39 ± 0.17 kg/m3, the mass density (313.15 K, x2 = 0.5008) was 899.86 ± 0.15 kg/m3 and the mass density (313.15 K, x2 = 0.5041) was 899.86 ± 0.15 kg/m3. The mass density (313.15 K, x2 = 0.5508) was 904.48 ± 0.15 kg/m3, the mass density (313.15 K, x2 = 0.5992) was 909.37 ± 0.15 kg/m3 and the mass density (313.15 K, x2 = 0.65) was 915.05 ± 0.14 kg/m3. The mass density (313.15 K, x2 = 0.699) was 920.96 ± 0.13 kg/m3, the mass density (313.15 K, x2 = 0.7496) was 927.77 ± 0.13 kg/m3 and the mass density (313.15 K, x2 = 0.7994) was 935.59 ± 0.14 kg/m3. For the same compound, the mass density (313.15 K, x2 = 0.8398) was 942.92 ± 0.15 kg/m3, the mass density (313.15 K, x2 = 0.8799) was 951.63 ± 0.17 kg/m3 and the mass density (313.15 K, x2 = 0.92) was 962.53 ± 0.2 kg/m3. For the same compound, the mass density (313.15 K, x2 = 0.9599) was 976.48 ± 0.22 kg/m3, the mass density (313.15 K, x2 = 0.96) was 976.54 ± 0.26 kg/m3 and the mass density (313.15 K, x2 = 0.9699) was 980.66 ± 0.26 kg/m3. It also gave a mass density (313.15 K, x2 = 0.98) of 985.06 ± 0.26 kg/m3, a mass density (318.15 K, x2 = 0.0199) of 860.37 ± 0.29 kg/m3 and a mass density (318.15 K, x2 = 0.0395) of 861.39 ± 0.29 kg/m3. For the same compound, the mass density (318.15 K, x2 = 0.0821) was 863.99 ± 0.27 kg/m3, the mass density (318.15 K, x2 = 0.1198) was 866.23 ± 0.26 kg/m3 and the mass density (318.15 K, x2 = 0.1594) was 868.63 ± 0.25 kg/m3. It also gave a mass density (318.15 K, x2 = 0.1994) of 871.37 ± 0.24 kg/m3, a mass density (318.15 K, x2 = 0.2498) of 874.79 ± 0.22 kg/m3 and a mass density (318.15 K, x2 = 0.3) of 878.26 ± 0.21 kg/m3. It also gave a mass density (318.15 K, x2 = 0.3499) of 882.18 ± 0.2 kg/m3, a mass density (318.15 K, x2 = 0.4) of 886.14 ± 0.19 kg/m3 and a mass density (318.15 K, x2 = 0.4529) of 890.8 ± 0.18 kg/m3. It also gave a mass density (318.15 K, x2 = 0.5008) of 895.29 ± 0.16 kg/m3, a mass density (318.15 K, x2 = 0.5041) of 895.28 ± 0.15 kg/m3 and a mass density (318.15 K, x2 = 0.5508) of 899.93 ± 0.16 kg/m3. It also gave a mass density (318.15 K, x2 = 0.5992) of 904.85 ± 0.15 kg/m3, a mass density (318.15 K, x2 = 0.65) of 910.58 ± 0.14 kg/m3 and a mass density (318.15 K, x2 = 0.699) of 916.55 ± 0.14 kg/m3. The mass density (318.15 K, x2 = 0.7496) was 923.47 ± 0.14 kg/m3, the mass density (318.15 K, x2 = 0.7994) was 931.44 ± 0.14 kg/m3 and the mass density (318.15 K, x2 = 0.8398) was 938.93 ± 0.15 kg/m3. For the same compound, the mass density (318.15 K, x2 = 0.8799) was 947.87 ± 0.17 kg/m3, the mass density (318.15 K, x2 = 0.92) was 959.11 ± 0.2 kg/m3 and the mass density (318.15 K, x2 = 0.9599) was 973.55 ± 0.23 kg/m3. It also gave a mass density (318.15 K, x2 = 0.96) of 973.61 ± 0.27 kg/m3, a mass density (318.15 K, x2 = 0.9699) of 977.9 ± 0.27 kg/m3 and a mass density (318.15 K, x2 = 0.98) of 982.5 ± 0.28 kg/m3. The mass density (323.15 K, x2 = 0.0199) was 855.9 ± 0.3 kg/m3, the mass density (323.15 K, x2 = 0.0395) was 856.9 ± 0.29 kg/m3 and the mass density (323.15 K, x2 = 0.0821) was 859.48 ± 0.28 kg/m3. The mass density (323.15 K, x2 = 0.1198) was 861.7 ± 0.26 kg/m3, the mass density (323.15 K, x2 = 0.1594) was 864.08 ± 0.25 kg/m3 and the mass density (323.15 K, x2 = 0.1994) was 866.81 ± 0.24 kg/m3. It also gave a mass density (323.15 K, x2 = 0.2498) of 870.21 ± 0.23 kg/m3, a mass density (323.15 K, x2 = 0.3) of 873.67 ± 0.21 kg/m3 and a mass density (323.15 K, x2 = 0.3499) of 877.58 ± 0.2 kg/m3. For the same compound, the mass density (323.15 K, x2 = 0.4) was 881.52 ± 0.19 kg/m3, the mass density (323.15 K, x2 = 0.4529) was 886.19 ± 0.18 kg/m3 and the mass density (323.15 K, x2 = 0.5008) was 890.68 ± 0.16 kg/m3. For the same compound, the mass density (323.15 K, x2 = 0.5041) was 890.68 ± 0.16 kg/m3, the mass density (323.15 K, x2 = 0.5508) was 895.33 ± 0.16 kg/m3 and the mass density (323.15 K, x2 = 0.5992) was 900.28 ± 0.15 kg/m3. For the same compound, the mass density (323.15 K, x2 = 0.65) was 906.06 ± 0.14 kg/m3, the mass density (323.15 K, x2 = 0.699) was 912.1 ± 0.14 kg/m3 and the mass density (323.15 K, x2 = 0.7496) was 919.11 ± 0.14 kg/m3. It also gave a mass density (323.15 K, x2 = 0.7994) of 927.23 ± 0.14 kg/m3, a mass density (323.15 K, x2 = 0.8398) of 934.88 ± 0.15 kg/m3 and a mass density (323.15 K, x2 = 0.8799) of 944.03 ± 0.17 kg/m3. The mass density (323.15 K, x2 = 0.92) was 955.59 ± 0.21 kg/m3, the mass density (323.15 K, x2 = 0.9599) was 970.5 ± 0.24 kg/m3 and the mass density (323.15 K, x2 = 0.96) was 970.56 ± 0.28 kg/m3. The mass density (323.15 K, x2 = 0.9699) was 975.01 ± 0.28 kg/m3, the mass density (323.15 K, x2 = 0.98) was 979.8 ± 0.29 kg/m3 and the mass density (333.15 K, x2 = 0.0199) was 846.92 ± 0.3 kg/m3. The mass density (333.15 K, x2 = 0.0395) was 847.9 ± 0.29 kg/m3, the mass density (333.15 K, x2 = 0.0821) was 850.41 ± 0.28 kg/m3 and the mass density (333.15 K, x2 = 0.1198) was 852.59 ± 0.26 kg/m3. It also gave a mass density (333.15 K, x2 = 0.1594) of 854.93 ± 0.25 kg/m3, a mass density (333.15 K, x2 = 0.1994) of 857.62 ± 0.24 kg/m3 and a mass density (333.15 K, x2 = 0.2498) of 860.98 ± 0.23 kg/m3. For the same compound, the mass density (333.15 K, x2 = 0.3) was 864.4 ± 0.21 kg/m3, the mass density (333.15 K, x2 = 0.3499) was 868.28 ± 0.2 kg/m3 and the mass density (333.15 K, x2 = 0.4) was 872.21 ± 0.19 kg/m3. For the same compound, the mass density (333.15 K, x2 = 0.4529) was 876.87 ± 0.18 kg/m3, the mass density (333.15 K, x2 = 0.5008) was 881.36 ± 0.16 kg/m3 and the mass density (333.15 K, x2 = 0.5041) was 881.35 ± 0.16 kg/m3. For the same compound, the mass density (333.15 K, x2 = 0.5508) was 886.03 ± 0.16 kg/m3.
